One assay concerns cardioids. The conditions noted are these: prior publication US 2004/0132184; cited from earlier work.
For assay [1], the system named is cardiac tissue constructs. The assay is described as follows: Inotropic response to ionic calcium (force vs calcium concentration of the bath). It counts as cell-based, rat. The conditions noted are these: explanted constructs, calcium reintroduced after EGTA removal. The procedure: The effect of the addition of exogenous calcium on contractility was investigated in the constructs according to the present invention. First, CM in the bath was replaced with calcium-free DMEM (Invitrogen). Known volumes of 100 mM ethylene glycol-bis(2-aminoethylether)-N,N,N′,N′-tetraacetic acid (EGTA) were then added to the bath to bind residual stores of calcium in the constructs. At each incremental addition of EGTA, twitch stimulation was applied and the force of contraction was measured. Removal of calcium was considered to be complete when the force of contraction was not detectable and no further EGTA was added. At this point, the calcium-free DMEM in the bath was aspirated and the construct was washed 3 times with fresh calcium-free DMEM. Known volumes of 100 mM calcium were then added and stimulated contraction forces were re-evaluated with each addition. This process was repeated until there was no further increase in the active force with the addition of calcium. The relationship of calcium concentration of the bath to force of contraction was then plotted.
The pCa1/2 of mammalian cardiac tissue has been reported in the range 5.9 to 7.0 (see Bers, Excitation-Contraction Coupling and Cardiac Contractile Force, Norwell: Kluwer Academic Publishers, 2002). […] The inotropic response to external calcium is an indicator of the presence of functional calcium handling machinery.

The subject of assay [2] is cardiac tissue constructs. Here is the method:
Turning now to FIG. 7, the response to epinephrine was studied in four constructs according to the present invention by adding known concentrations of epinephrine to the CM, with the constructs still attached to the force transducer. […] The concentration of epinephrine was calculated based on the typical dosage given to an adult for cardiac resuscitation. The spontaneous contractility of the constructs was recorded for a period of 5 minutes after the addition of epinephrine.

Turning to `[Ca+2]` [calcium], the response of cardioids result in the assay on cardioids is “positive inotropy”. In addition, the pCa1/2 in assay [1] is 3.04.
For `CNC[C@H](O)c1ccc(O)c(O)c1` [epinephrine], in the assay on cardioids, the response of cardioids entry is “positive chronotropy”. Further, the “duration of rapid contraction pattern (resembling tachyarrhythmia)” value in assay [2] (0.2 μg/ml) fell in the range of 60 to 90 s. The “effect on spontaneous contractility” value in assay [2] (0.2 μg/ml in culture bath, four constructs) was “re-initiated spontaneous contractions”.
